Reference: patent publication US10940139B2, “Compounds that interact with the Ras superfamily for the treatment of cancers, inflammatory diseases, rasopathies, and fibrotic disease” (Shy Therapeutics LLC, priority 2017, dated 2021)

What was measured:
[1] = test system: IL6 production in RAW 264.7 macrophage cell line; assay: Mouse IL6 quantification assay (LPS-stimulated macrophages, ELISA); assay type: cell-based; details: RAW264.7, RAW 264.7 murine leukemia virus transformed macrophage cell lines, LPS stimulation, read-out: IL-6 % Inhibition at 30 μM
[2] = test system: TNFα production in RAW 264.7 macrophage cell line; assay: Mouse TNF alpha quantification assay (LPS-stimulated macrophages, ELISA); assay type: cell-based; details: RAW264.7, RAW 264.7 murine leukemia virus transformed macrophage cell lines, LPS stimulation, read-out: TNF-α % Inhibition at 30 μM

Structure (SMILES) | inhibition at 30 µM [1] | inhibition at 30 µM [2]
OCCn1ncc2c1CCCC2Nc1nc(-c2ccccn2)nc2scc(-c3ccccc3)c12 (stereo not shown) | 26 to 50% | 26 to 50%
O=C(c1csc2c(O)nc(-c3ccccn3)nc12)N1CCOC(c2ccccc2Cl)C1 (stereo not shown) [drawing 2194] | 76 to 100% | 1 to 25%
Cc1sc2c(O)nc(-c3ccccn3)nc2c1C(=O)N1CCN(Cc2cccc(O)c2)CC1 [drawing 2334] | 26 to 50% | 0%
CN(CCc1ccncc1)C(=O)c1csc2c(O)nc(N)nc12 | 1 to 25% | 0%
Cc1nc(-c2ccccn2)nc(O)c1CCC(=O)Nc1ccc(C(C)C)cc1 [drawing 2034] | 0% | 1 to 25%
CCC(C)(C)c1ccc(OCCCC(=O)NC(C(=O)OC)C(C)C)c(C(C)(C)CC)c1 (stereo not shown) [drawing 2054] | 26 to 50% | 26 to 50%
COC1CC(CNc2nc(-c3ccccn3)nc3scc(-c4ccccc4)c23)CCC1OCC(N)=O (stereo not shown) | 76 to 100% | 76 to 100%
CN(Cc1cnn(C)c1)c1nc(-c2ccccn2)nc2scc(-c3ccccc3)c12 [drawing 2141] | 76 to 100% | 26 to 50%
COc1ccccc1C1CC1C(=O)Nc1nnc(-c2ccccn2)[nH]1 (stereo not shown) [drawing 1986] | 26 to 50% | 1 to 25%
COCCCn1ccc(Nc2cc(C)nc(-c3ccccn3)n2)n1 [drawing 2041] | 26 to 50% | 0%
Nc1nc(-c2ccccn2)nc2ccsc12 [drawing 2227] | 0% | 1 to 25%
O=C(Nc1nnc(-c2ccccn2)[nH]1)C1CCCN(c2cnccn2)C1 (stereo not shown) [drawing 1979] | 1 to 25% | 1 to 25%
FC(F)(F)Sc1ccc(Cc2ccc(SC(F)(F)F)cc2)cc1 [drawing 2051] | 1 to 25% | 0%
Oc1nc(-c2ccccn2)nc2c(C3CCCC3)csc12 [drawing 2337] | 51 to 75% | 26 to 50%
N#Cc1ccc(N2CCN(C(=O)c3csc4c(O)nc(-c5ccccn5)nc34)CC2)cc1 [drawing 2182] | 26 to 50% | 0%
O=C(Nc1nnc(-c2ccccn2)[nH]1)C1=NOC(c2ccccc2)C1 (stereo not shown) [drawing 1992] | 26 to 50% | 1 to 25%
Cc1ccc(OC2CCCC2)c(-c2csc3c(O)nc(-c4ccccn4)nc23)c1 [drawing 2237] | 76 to 100% | 51 to 75%
O=C(COCc1cccnc1)Nc1nc(-c2ccccn2)nc2sccc12 [drawing 2222] | 51 to 75% | 1 to 25%
O=C(c1csc2c(O)nc(-c3ccccn3)nc12)N1CCN(Cc2ccc(O)cc2)CC1 [drawing 2189] | 1 to 25% | 1 to 25%
Cc1ccc(CN(Cc2ccco2)C(=O)c2oc3ccccc3c2C)cc1 [drawing 2049] | 1 to 25% | 0%
COCCN(C)c1nc(-c2nccn2C)nc2sc(-c3ccccc3)c(-c3ccccc3)c12 [drawing 2393] | 76 to 100% | 76 to 100%
Cn1cnc(-c2nc(O)c3c(-c4ccccc4)c(-c4ccncc4)sc3n2)c1 [drawing 2355] | 0% | 1 to 25%

Structure (SMILES) | inhibition at 30 µM [1] | inhibition at 30 µM [2]
CC(C)(C)c1nc(C(=O)Nc2nnc(-c3ccccn3)[nH]2)cs1 [drawing 1991] | 1 to 25% | 0%
Cc1cc(OC(F)F)ccc1-c1csc2c(O)nc(-c3ccccn3)nc12 [drawing 2270] | 76 to 100% | 0%
Oc1nc(-c2ccccn2)nc2c(-c3ccccc3)csc12 [drawing 2120] | 76 to 100% | 51 to 75%
c1ccc(-c2csc3nc(-c4ccccn4)nc(N4CCOCC4)c23)cc1 [drawing 2155] | 1 to 25% | 1 to 25%
O=C(CN1CCN(c2nc(-c3ccccn3)nc3sc(-c4ccccc4)cc23)CC1)N1CCCC1 [drawing 2143] | 76 to 100% | 76 to 100%
O=C(Nc1nnc(-c2ccccn2)[nH]1)c1nc(N2CCOCC2)ncc1Cl [drawing 1964] | 1 to 25% | 0%
O=C(c1csc2c(O)nc(-c3ccccn3)nc12)N1CC2CC1CN2c1ccccc1 (stereo not shown) [drawing 2231] | 51 to 75% | 0%
O=C(Nc1nnc(-c2ccccn2)[nH]1)C1Cc2cc(Cl)ccc2O1 (stereo not shown) [drawing 1995] | 51 to 75% | 1 to 25%
COc1ccc(CN(CC[S+]([O-])c2cc(Cl)ccc2Cl)C2CC2)cc1 (stereo not shown) [drawing 2060] | 0% | 1 to 25%
O=C(c1csc2c(O)nc(-c3ccccn3)nc12)N1CCN(c2cccc(F)c2)CC1 [drawing 2179] | 76 to 100% | 0%
COc1ccc(-c2csc3[nH]c(-c4ccccn4)nc(=O)c23)cc1 [drawing 2023] | 26 to 50% | 1 to 25%
CN1CCN(c2nc(-c3ccccn3)nc3scc(C(=O)NCCc4cnc(O)nc4)c23)CC1 [drawing 2291] | 26 to 50% | 26 to 50%
O=C(COCc1ccncc1)Nc1nc(-c2ccccn2)nc2sccc12 [drawing 2221] | 76 to 100% | 1 to 25%
O=C(Nc1nnc(-c2ccccn2)[nH]1)c1ccn(-c2cccc(F)c2)n1 [drawing 1938] | 26 to 50% | 0%
COc1cn(-c2ccccc2)nc1C(=O)Nc1nnc(-c2ccccn2)[nH]1 [drawing 2000] | 26 to 50% | 0%
O=C(c1csc2c(O)nc(-c3ccccn3)nc12)N1CCNC(c2ccccc2Cl)C1 (stereo not shown) [drawing 2216] | 51 to 75% | 0%
COc1cnc(CNC(=O)c2cc3nc(-c4ccccn4)nc(O)c3s2)[nH]c1=O [drawing 2348] | 0% | 1 to 25%
CN(CCCc1n[nH]c(N)c1C#N)c1nc(-c2ccccn2)nc2sc(-c3ccccc3)cc12 [drawing 2142] | 76 to 100% | 51 to 75%
Brc1csc2nc(-c3ccccn3)nc(N3CCOCC3)c12 [drawing 2126] | 51 to 75% | 0%
Cc1sc2c(O)nc(-c3ccccn3)nc2c1C(=O)N1CCN(c2ccccc2)CC1 [drawing 2332] | 26 to 50% | 1 to 25%
O=C(Nc1nnc(-c2ccccn2)[nH]1)C1CC(=O)N(CCc2ccccc2)C1 (stereo not shown) [drawing 1958] | 1 to 25% | 0%
COCCNc1nc(-c2ccncn2)nc2sc(-c3ccccc3)c(-c3ccccc3)c12 [drawing 2401] | 76 to 100% | 51 to 75%

Structure (SMILES) | inhibition at 30 µM [1] | inhibition at 30 µM [2]
COCCCNc1nc(-c2nccn2C)nc2sc(-c3ccccc3)c(-c3ccccc3)c12 [drawing 2397] | 76 to 100% | 76 to 100%
Cc1nc2nc(C(F)(F)F)nn2c(C)c1CC(=O)Nc1nnc(-c2ccccn2)[nH]1 [drawing 1984] | 0% | 1 to 25%
COCCCC1CCN(C(=O)c2csc3c(O)nc(N)nc23)CC1 [drawing 2092] | 0% | 1 to 25%
COc1cccc(COCC(=O)Nc2nnc(-c3ccccn3)[nH]2)c1 [drawing 1985] | 26 to 50% | 1 to 25%
O=C(CN1CCN(c2nc(-c3ccccn3)nc3scc(-c4ccccc4)c23)CC1)N1CCCCC1 [drawing 2148] | 26 to 50% | 1 to 25%
Cc1sc2nc(-c3ccccn3)nc(NCCCO)c2c1-c1ccccc1 [drawing 2045] | 1 to 25% | 1 to 25%
Oc1nc(-c2ccccn2)nc2c(-c3ccc(OC4CCCCC4)cc3)csc12 [drawing 2279] | 76 to 100% | 76 to 100%
COc1nc(-c2ccccn2)nc2c(C3CCCC3)csc12 [drawing 2309] | 0% | 0%
CC(C)CNC(=O)CN1CCN(c2nc(-c3ccccn3)nc3scc(-c4ccccc4)c23)CC1 [drawing 2151] | 76 to 100% | 26 to 50%
Nc1nc(O)c2scc(-c3ccccc3)c2n1 [drawing 2118] | 1 to 25% | 0%
CCn1nc(C)cc1-c1csc2c(O)nc(-c3ccccn3)nc12 [drawing 2295] | 76 to 100% | 51 to 75%
O=C1CCN(c2nc(-c3ccccn3)nc3scc(-c4ccccc4)c23)CC1 [drawing 2163] | 1 to 25% | 1 to 25%
COc1cccc(CN2CCN(C(=O)c3csc4c(O)nc(-c5ccccn5)nc34)CC2)c1 [drawing 2188] | 51 to 75% | 0%
Cc1sc2c(O)nc(-c3ccccn3)nc2c1-c1ccccc1Cl [drawing 2342] | 51 to 75% | 51 to 75%
COc1ccc(F)cc1-c1csc2c(O)nc(-c3ccccn3)nc12 [drawing 2266] | 76 to 100% | 26 to 50%
NC(=O)C1CCCN(c2nc(-c3ccccn3)nc3scc(-c4ccccc4)c23)C1 (stereo not shown) [drawing 2160] | 1 to 25% | 1 to 25%
Oc1nc(-c2ccccn2)nc2c(-c3ccc4c(c3)CCCO4)csc12 [drawing 2294] | 1 to 25% | 0%
COCCOCCN(C)C(=O)c1csc2c(O)nc(-c3ccccn3)nc12 [drawing 2113] | 26 to 50% | 0%
Cc1nc(-c2ccccn2)sc1C(=O)Nc1nnc(-c2ccccn2)[nH]1 [drawing 1983] | 1 to 25% | 0%
Oc1nc(-c2ccccn2)nc2c(-c3ccsc3)csc12 [drawing 2267] | 76 to 100% | 76 to 100%
COc1cccc(CC2CN(C(=O)c3csc4c(O)nc(-c5ccccn5)nc34)CCN2)c1 (stereo not shown) [drawing 2223] | 1 to 25% | 1 to 25%
